Laboratory results published in article PMC3673537 (Bioorganic & medicinal chemistry, 2011).
Marks after values point to notes of the source that are not given here.

Legend:
CqsS [1] = target: T1, CqsS (Vibrio cholerae serotype O1, UniProt Q9KM66); test: Vibrio cholerae antagonism bioassay; details: for antagonist activity (in words): V. cholerae MM920 reporter with 1.0 μM CAI-1, up to 512 μM; for Ratio: IC50 (analog)/IC50 (Ph-CAI-1): using the IC50 of Ph-CAI-1 determined on the same day
CqsS [2] = target: T1, CqsS; test: Vibrio cholerae agonism bioassay; details: for agonist activity (in words): V. cholerae MM920 reporter, up to 50 μM; for % Response at the maximum concentration (50 μM): bioluminescence at 50 μM, with respect to CAI-1 at 100%
Tcp = test: Western blot against Tcp; assay type: cell-based, Vibrio cholerae; details: Supplementary data
HapR = test: Western blot against HapR; assay type: cell-based, Vibrio cholerae; details: Supplementary data

T1 sequence (Q9KM66 whole entry, looked up): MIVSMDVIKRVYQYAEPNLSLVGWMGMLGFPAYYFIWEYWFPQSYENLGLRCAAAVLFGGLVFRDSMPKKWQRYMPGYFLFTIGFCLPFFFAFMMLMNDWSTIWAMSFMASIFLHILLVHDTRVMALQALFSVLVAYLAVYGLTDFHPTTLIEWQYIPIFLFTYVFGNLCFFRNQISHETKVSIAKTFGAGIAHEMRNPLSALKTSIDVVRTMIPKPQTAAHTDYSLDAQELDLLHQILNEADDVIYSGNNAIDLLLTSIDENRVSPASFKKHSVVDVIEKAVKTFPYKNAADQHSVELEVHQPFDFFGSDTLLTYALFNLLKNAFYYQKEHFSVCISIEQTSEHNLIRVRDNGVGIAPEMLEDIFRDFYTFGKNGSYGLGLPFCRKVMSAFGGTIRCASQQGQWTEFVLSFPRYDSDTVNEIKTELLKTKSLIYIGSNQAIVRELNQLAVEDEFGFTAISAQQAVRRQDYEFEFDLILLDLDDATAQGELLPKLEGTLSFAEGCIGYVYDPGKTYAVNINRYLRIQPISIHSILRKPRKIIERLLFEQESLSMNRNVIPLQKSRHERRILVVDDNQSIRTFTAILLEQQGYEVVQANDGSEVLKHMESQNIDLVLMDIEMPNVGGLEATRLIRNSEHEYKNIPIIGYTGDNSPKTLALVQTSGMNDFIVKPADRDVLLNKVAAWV

Row | Structure (SMILES) | antagonist activity (in words) (CqsS [1]) | agonist activity (in words) (CqsS [2]) | other results
1 | CCCCCCCCCC(=O)C(O)c1ccc(C)c(C)c1 (stereo not shown) [Compound C9, 1-Hydroxy-1-(3,4-dimethylphenyl)undecan-2-one] | abolishes activity | – | –
2 | CCCCCCCCCCCCC(=O)[C@@H](O)CC [Compound A9, (S)-3-Hydroxyhexadecan-4-one] | – | essentially inactive | –
3 | CCCCCCCCCC(=O)C(O)c1ccc(Br)cc1 (stereo not shown) [Compound C28, 1-(4-Bromophenyl)-1-hydroxyundecan-2-one] | weak antagonist | – | –
4 | CCCCCCCCCC(=O)C(O)C(C)(C)C (stereo not shown) [Compound C4, 3-Hydroxy-2,2-dimethyltridecan-4-one] | – | inactive | –
5 | CCCCCCC(=O)[C@@H](O)CC [Compound A2, (S)-3-Hydroxydecan-4-one] | – | essentially inactive | % Response at the maximum concentration (50 μM) (CqsS [2]): 59 ^e %
6 | CCCCCC(=O)[C@@H](O)CC [Compound A1, (S)-3-Hydroxynonan-4-one] | – | – | % Response at the maximum concentration (50 μM) (CqsS [2]): 27 ^e %
7 | CCCCCCCCCC(=O)[C@@H](O)CC [Compound 1, (S)-3-hydroxytridecan-4-one] | – | – | expression of Tcp (Tcp): significant reduction; expression of HapR (HapR): concomitant expression
8 | CCCCCCCCCC(=O)C(O)c1ccc(CC)cc1 (stereo not shown) [Compound C10, 1-(4-Ethylphenyl)-1-hydroxyundecan-2-one] | inactive | – | IC50 (CqsS [1]): > 500 µM; Ratio: IC50 (analog)/IC50 (Ph-CAI-1) (CqsS [1]): >9
9 | CCCCCCCCCC(=O)C(O)c1ccc(CCC)cc1 (stereo not shown) [Compound C11, 1-Hydroxy-1-(4-propylphenyl)-undecan-2-one] | inactive | – | IC50 (CqsS [1]): > 500 µM; Ratio: IC50 (analog)/IC50 (Ph-CAI-1) (CqsS [1]): >9
10 | CCCCCCCCCC(=O)C(Cl)CC (stereo not shown) [Compound B8, Cl-CAI-1] | – | inactive | –
